Assay results taken from PubChem BioAssay AID588472 (The Scripps Research Institute Molecular Screening Center, 2011).
pIC50: −log10 of the molar value.

What was measured:
Assay in all cases: PubChem AID 588472; call rule not given here
[1] = target: Protein-arginine deiminase type-1 (Homo sapiens) (UniProt Q9ULC6); conditions: recombinant PAD1-4, colorimetric citrullination assay; PAD1
[2] = target: Protein-arginine deiminase type-2 (Homo sapiens) (UniProt Q9Y2J8); conditions: recombinant PAD1-4, colorimetric citrullination assay; PAD2
Chain of Protein-arginine deiminase type-2 (Homo sapiens) (Q9Y2J8 whole entry, looked up): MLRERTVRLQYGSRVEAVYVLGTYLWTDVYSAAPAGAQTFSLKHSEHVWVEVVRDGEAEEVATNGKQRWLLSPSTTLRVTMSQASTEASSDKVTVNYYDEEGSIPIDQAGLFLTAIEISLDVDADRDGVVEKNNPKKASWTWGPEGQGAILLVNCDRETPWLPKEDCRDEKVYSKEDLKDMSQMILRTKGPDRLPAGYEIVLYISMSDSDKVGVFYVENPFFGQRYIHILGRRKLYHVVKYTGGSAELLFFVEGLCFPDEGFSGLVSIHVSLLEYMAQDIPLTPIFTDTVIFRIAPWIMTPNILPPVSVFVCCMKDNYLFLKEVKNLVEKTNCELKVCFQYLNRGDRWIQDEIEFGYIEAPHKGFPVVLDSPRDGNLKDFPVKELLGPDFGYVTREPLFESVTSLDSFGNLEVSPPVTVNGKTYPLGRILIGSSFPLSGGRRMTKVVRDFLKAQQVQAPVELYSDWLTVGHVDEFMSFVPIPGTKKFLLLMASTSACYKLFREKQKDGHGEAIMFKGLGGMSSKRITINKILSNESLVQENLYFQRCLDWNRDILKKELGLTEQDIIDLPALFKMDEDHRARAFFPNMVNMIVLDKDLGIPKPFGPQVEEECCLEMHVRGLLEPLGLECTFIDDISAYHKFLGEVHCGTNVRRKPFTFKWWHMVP

[3] = target: Protein-arginine deiminase type-3 (Homo sapiens) (UniProt Q9ULW8); conditions: recombinant PAD1-4, colorimetric citrullination assay; PAD3
Chain of Protein-arginine deiminase type-3 (Homo sapiens) (Q9ULW8 whole entry, looked up): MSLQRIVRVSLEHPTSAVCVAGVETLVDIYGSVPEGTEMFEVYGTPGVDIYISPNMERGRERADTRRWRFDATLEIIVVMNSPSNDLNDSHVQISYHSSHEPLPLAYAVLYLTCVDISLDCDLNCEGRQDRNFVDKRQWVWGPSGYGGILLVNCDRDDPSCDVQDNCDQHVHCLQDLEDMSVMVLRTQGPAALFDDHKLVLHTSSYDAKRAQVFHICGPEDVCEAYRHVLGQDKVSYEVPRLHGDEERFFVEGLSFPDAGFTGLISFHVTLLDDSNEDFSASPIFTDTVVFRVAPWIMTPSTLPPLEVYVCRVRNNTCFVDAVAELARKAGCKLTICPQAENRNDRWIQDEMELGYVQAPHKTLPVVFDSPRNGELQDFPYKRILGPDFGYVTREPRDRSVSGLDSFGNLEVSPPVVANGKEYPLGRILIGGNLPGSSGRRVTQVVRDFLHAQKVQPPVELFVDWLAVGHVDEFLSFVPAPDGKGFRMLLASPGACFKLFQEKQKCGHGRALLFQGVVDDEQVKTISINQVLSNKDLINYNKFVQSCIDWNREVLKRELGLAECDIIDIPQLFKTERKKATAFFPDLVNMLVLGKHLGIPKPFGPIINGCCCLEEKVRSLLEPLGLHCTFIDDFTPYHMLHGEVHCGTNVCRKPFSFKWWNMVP

[4] = target: Protein-arginine deiminase type-4 (Homo sapiens) (UniProt Q9UM07); conditions: recombinant PAD1-4, colorimetric citrullination assay; PAD4
Chain of Protein-arginine deiminase type-4 (Homo sapiens) (Q9UM07 whole entry, looked up): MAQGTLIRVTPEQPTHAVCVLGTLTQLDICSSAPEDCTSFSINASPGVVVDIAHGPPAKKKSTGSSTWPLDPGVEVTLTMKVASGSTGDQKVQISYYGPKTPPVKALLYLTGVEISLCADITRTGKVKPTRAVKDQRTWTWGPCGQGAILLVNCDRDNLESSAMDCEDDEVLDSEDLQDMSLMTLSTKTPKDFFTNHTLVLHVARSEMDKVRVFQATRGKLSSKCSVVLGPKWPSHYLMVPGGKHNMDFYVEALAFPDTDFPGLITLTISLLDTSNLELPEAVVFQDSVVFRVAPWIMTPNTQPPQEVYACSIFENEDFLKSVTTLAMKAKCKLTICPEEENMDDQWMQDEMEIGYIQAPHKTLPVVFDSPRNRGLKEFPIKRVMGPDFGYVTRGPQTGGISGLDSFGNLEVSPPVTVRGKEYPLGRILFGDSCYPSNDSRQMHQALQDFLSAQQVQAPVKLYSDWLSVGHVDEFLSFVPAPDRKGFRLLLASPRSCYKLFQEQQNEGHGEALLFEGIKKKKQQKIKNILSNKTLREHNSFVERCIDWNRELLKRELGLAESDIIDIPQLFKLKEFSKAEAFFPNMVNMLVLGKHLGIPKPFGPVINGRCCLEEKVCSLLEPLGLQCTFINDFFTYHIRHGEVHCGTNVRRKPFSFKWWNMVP

Measured: pIC50

Chain of Protein-arginine deiminase type-1 (Homo sapiens) (Q9ULC6 whole entry, looked up): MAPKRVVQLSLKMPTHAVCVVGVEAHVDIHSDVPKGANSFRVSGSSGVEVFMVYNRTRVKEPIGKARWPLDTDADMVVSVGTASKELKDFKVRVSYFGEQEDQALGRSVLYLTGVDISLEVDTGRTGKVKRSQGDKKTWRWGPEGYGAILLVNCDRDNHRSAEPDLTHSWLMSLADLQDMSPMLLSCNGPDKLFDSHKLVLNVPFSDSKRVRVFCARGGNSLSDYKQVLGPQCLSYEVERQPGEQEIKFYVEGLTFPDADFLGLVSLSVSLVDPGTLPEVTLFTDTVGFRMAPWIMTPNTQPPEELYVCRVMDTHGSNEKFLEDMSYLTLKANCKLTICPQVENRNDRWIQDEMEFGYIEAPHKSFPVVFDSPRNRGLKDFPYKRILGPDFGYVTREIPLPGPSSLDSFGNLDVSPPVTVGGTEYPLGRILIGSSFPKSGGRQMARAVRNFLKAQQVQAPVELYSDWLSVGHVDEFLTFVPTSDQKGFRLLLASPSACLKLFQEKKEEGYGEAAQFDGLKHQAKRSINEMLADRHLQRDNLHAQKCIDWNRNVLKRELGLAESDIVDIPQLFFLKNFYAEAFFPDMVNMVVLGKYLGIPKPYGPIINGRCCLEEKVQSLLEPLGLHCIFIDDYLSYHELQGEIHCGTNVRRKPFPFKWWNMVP

NC1=CC(=O)c2cccnc2C1=O
active: [1] 6.01 | [2] 6.13 | [3] 6.77 | [4] 6.00
